From ChEMBL document CHEMBL2074353, “Reversal of the human and murine multidrug-resistance phenotype with megestrol acetate” (Cancer Chemother Pharmacol, 1994) come the findings set out here.

The target in series [1] is T1, ATP-dependent translocase ABCB1 (Homo sapiens, UniProt P08183). In words: TP_TRANSPORTER: increase in Doxorubicin intracellular accumulation (Doxorubicin: […], Megestrol acetate: 50 uM) in HCT-116/VM46 cells, flow cytometry. Type of series: functional, cell-based. The following applies: hct-116/vm46, 50 µM.
Series [2] concerns the target T1, ATP-dependent translocase ABCB1. In words: TP_TRANSPORTER: increase in Doxorubicin intracellular accumulation (Doxorubicin: […], Megestrol acetate: 25 uM) in MCF-7/ADR cells, flow cytometry. It is filed as functional, cell-based. Particulars: nci/adr-res.

T1 sequence (P08183 whole entry): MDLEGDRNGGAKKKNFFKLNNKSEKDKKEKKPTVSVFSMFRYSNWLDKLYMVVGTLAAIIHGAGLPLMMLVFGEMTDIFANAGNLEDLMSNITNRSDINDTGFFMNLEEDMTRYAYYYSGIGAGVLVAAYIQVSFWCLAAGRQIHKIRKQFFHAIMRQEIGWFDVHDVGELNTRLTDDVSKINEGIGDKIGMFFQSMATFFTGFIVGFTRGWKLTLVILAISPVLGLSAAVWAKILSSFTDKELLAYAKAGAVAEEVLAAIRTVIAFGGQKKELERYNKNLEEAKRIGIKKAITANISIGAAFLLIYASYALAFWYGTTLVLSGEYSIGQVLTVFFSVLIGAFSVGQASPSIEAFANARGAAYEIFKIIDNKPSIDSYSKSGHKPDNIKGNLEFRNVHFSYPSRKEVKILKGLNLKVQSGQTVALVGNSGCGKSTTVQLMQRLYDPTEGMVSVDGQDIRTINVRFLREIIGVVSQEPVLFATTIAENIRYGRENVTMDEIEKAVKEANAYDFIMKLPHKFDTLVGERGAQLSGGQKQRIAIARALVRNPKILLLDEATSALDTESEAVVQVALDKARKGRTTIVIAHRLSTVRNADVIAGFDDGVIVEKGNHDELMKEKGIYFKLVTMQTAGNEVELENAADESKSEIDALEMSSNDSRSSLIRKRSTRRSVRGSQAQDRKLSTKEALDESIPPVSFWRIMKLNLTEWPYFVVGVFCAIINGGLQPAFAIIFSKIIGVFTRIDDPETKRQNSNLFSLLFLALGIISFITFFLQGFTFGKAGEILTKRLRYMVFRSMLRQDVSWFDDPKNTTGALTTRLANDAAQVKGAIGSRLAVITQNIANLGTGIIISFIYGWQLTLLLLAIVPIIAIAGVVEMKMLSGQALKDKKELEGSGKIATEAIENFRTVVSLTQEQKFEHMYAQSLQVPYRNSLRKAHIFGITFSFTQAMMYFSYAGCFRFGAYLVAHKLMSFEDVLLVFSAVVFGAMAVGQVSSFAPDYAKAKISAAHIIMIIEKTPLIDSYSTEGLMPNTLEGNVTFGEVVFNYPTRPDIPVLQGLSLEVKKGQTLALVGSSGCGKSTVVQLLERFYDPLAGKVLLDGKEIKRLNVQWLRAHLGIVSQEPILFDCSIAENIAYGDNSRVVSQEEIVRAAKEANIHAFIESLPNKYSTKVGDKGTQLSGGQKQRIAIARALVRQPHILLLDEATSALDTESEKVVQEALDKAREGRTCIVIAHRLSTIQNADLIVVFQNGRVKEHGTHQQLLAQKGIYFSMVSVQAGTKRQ

With `CC(=O)O[C@]1(C(C)=O)CC[C@H]2[C@@H]3C=C(C)C4=CC(=O)CC[C@]4(C)[C@H]3CC[C@@]21C` [MEGESTROL ACETATE], the Activity result in series [1] and in series [2] was “inhibitor [+]” throughout.
